Values quoted from earlier work as cited in PMC5889410, “Design and Biological Evaluation of Antifouling Dihydrostilbene Oxime Hybrids” (Marine Biotechnology (New York, N.y.), 2018).
In brackets after ≈: the same amount, converted by molar mass.

Assays:
[1] = system: Balanus improvisus cyprid larvae; details: cited from earlier work
[2] = system: Vibrio harveyi; details: ref Moodie et al. ([2017b]); cited from earlier work
[3] = system: Ciona savignyi; set-up: method as in Moodie et al. [2017b]; details: ref Moodie et al. [2017b], cited from earlier work
[4] = system: Pseudoalteromonas elyakovii; details: ref Moodie et al. ([2017b]); cited from earlier work
[5] = system: Vibrio carchariae; details: ref Moodie et al. ([2017b]); cited from earlier work
[6] = system: Vibrio proteolyticus; details: ref Moodie et al. ([2017b]); cited from earlier work
[7] = system: Halomonas aquamarina; details: ref Moodie et al. ([2017b]); cited from earlier work
[8] = system: Vibrio aestuarianus; details: ref Moodie et al. ([2017b]); cited from earlier work
[9] = system: Halamphora coffeaeformis; details: ref Moodie et al. ([2017b]); cited from earlier work
[10] = system: Vibrio harveyi; details: ref Moodie et al. ([2017b]); cited from earlier work; remark: listed apart in the source
[11] = system: Vibrio carchariae; details: ref Moodie et al. ([2017b]); cited from earlier work; remark: listed apart in the source
[12] = system: Halamphora coffeaeformis; details: ref Moodie et al. ([2017b]); cited from earlier work; remark: listed apart in the source
[13] = system: Roseobacter litoralis; details: ref Moodie et al. ([2017b]); cited from earlier work
[14] = system: Porphyridium purpureum; details: ref Moodie et al. ([2017b]); cited from earlier work
[15] = system: Cylindrotheca closterium; details: ref Moodie et al. ([2017b]); cited from earlier work
[16] = system: Vibrio natriegens; details: ref Moodie et al. ([2017b]); cited from earlier work
[17] = system: Cylindrotheca closterium; details: ref Moodie et al. ([2017b]); cited from earlier work; remark: listed apart in the source
[18] = system: Vibrio aestuarianus; details: ref Moodie et al. ([2017b]); cited from earlier work; remark: listed apart in the source
[19] = system: Vibrio proteolyticus; details: ref Moodie et al. ([2017b]); cited from earlier work; remark: listed apart in the source
[20] = system: Porphyridium purpureum; details: ref Moodie et al. ([2017b]); cited from earlier work; remark: listed apart in the source
[21] = system: marine bacteria; details: panel of marine bacteria; ref Moodie et al. [2017b]; cited from earlier work
[22] = system: Halomonas aquamarina; details: ref Moodie et al. ([2017b]); cited from earlier work; remark: listed apart in the source
[23] = system: Pleurochrysis roscoffensis; details: ref Moodie et al. ([2017b]); cited from earlier work
[24] = system: Shewanella putrefaciens; details: ref Moodie et al. ([2017b]); cited from earlier work
[25] = system: Pleurochrysis roscoffensis; details: ref Moodie et al. ([2017b]); cited from earlier work; remark: listed apart in the source

COc1ccc(CCc2ccccc2)cc1OC [Compound 2]
IC50 (cyprid settlement inhibition) ([1]; B. improvisus, ref Moodie et al. ([2017b])): 0.75 µg/mL (≈ 3.1 µM)
Toxicity (%) (dead cyprids) ([1]; B. improvisus, reported at 5 μg/mL, ref Moodie et al. ([2017b])): 5.3%
toxicity, in words ([1]; Balanus improvisus, ref Moodie et al. [2017b]): low toxicity
MIC against the growth of marine bacteria, V.h. [2]: – (Not active at > 10 μg/mL)
inhibition of settlement, in words ([3]; even after 5 days): effectively inhibited
IC50 (settlement inhibition) [3]: 1.1 µg/mL (≈ 4.54 µM)
toxicity, in words [3]: low toxicity
MIC against the growth of marine bacteria, P.e. [4]: 10 µg/mL
MIC against the adhesion of marine bacteria, V.c. [5]: – (Not active at > 10 μg/mL)
MIC against the growth of marine bacteria, V.p. [6]: – (Not active at > 10 μg/mL)
MIC against the growth of marine bacteria, H.a. [7]: 0.01 µg/mL
MIC against the adhesion of marine bacteria, V.a. [8]: – (Not active at > 10 μg/mL)
MIC against the growth (G) of microalgae, H. coffeaformis [9]: 0.01 µg/mL
MIC against the adhesion of marine bacteria, V.h. [10]: – (Not active at > 10 μg/mL)
MIC against the growth of marine bacteria, V.c. [11]: – (Not active at > 10 μg/mL)
MIC against the adhesion (A) of microalgae, H. coffeaformis [12]: 1 µg/mL
MIC against the growth of marine bacteria, R.l. [13]: 10 µg/mL
MIC against the adhesion (A) of microalgae, P. purpureum [14]: 10 µg/mL
MIC against the growth (G) of microalgae, C. closterium [15]: 0.01 µg/mL
MIC against the growth of marine bacteria, V.n. [16]: – (Not active at > 10 μg/mL)
MIC against the adhesion (A) of microalgae, C. closterium [17]: 0.1 µg/mL
MIC against the growth of marine bacteria, V.a. [18]: 10 µg/mL
MIC against the adhesion of marine bacteria, V.p. [19]: – (Not active at > 10 μg/mL)
MIC against the growth (G) of microalgae, P. purpureum [20]: 1 µg/mL
Activity against bacterial adhesion [21]: inactive
MIC against the adhesion of marine bacteria, H.a. [22]: – (Not active at > 10 μg/mL)
MIC against the adhesion (A) of microalgae, P. roscoffensis [23]: 1 µg/mL
MIC against the growth of marine bacteria, S.p. [24]: 0.1 µg/mL
MIC against the growth (G) of microalgae, P. roscoffensis [25]: 0.01 µg/mL
